According to US20240246943A1, “MULTIFACETED APPROACH TO NOVEL INTERLEUKIN-6 INHIBITORS” (UNIVERSITY OF FLORIDA RESEARCH FOUNDATION, INCORPORATED, priority 2021, published 2024):
Where two headings read alike, the source gives them in different places. Marks after values point to notes of the source that are not given here.

Tests used:
[1] = tested on: SUM159 breast cancer cells; test: MTT cell viability assay, SUM159; format: cell-based; conditions: 72 hours, Inactive = no measurable activity at 20 μM
Description: (§1) Cell viability of MDA-MB-231 breast cancer cells was evaluated by using the MTT assay in triple replicates in one experiment and repeated for three times (FIG. 3). MDA-MB-231 SUM159, SUM159 gp140ko, MDA-MB-231 breast cancer cells or SUM149 or HCC1937 BRCA mutant breast cancer cells were seeded in 96-well plates at a density of 3,000 cells per well. The cells were incubated at 37° C. for a period of 24 hours. Escalating concentrations of IL-6/gp130 inhibitors (e.g., compounds of Formula (A), (B), (C), (D), (E), or (F) including LLM-418, bazedoxifene, LS-28-3, and COMP-D (LS-101-D)) were added in triplicate to the plates in the presence of 10% FBS. After incubation for 72 hours (unless otherwise noted), a stock solution of MTT (0.5 mg/ml) was then added to each well containing the treated cells, followed by incubation at 37° C. for 3 h. After removal of medium, the MTT dye was dissolved with spectrophotometric grade DMSO and the absorbance was read at 570 nm. The IC50 value is determined by interpolation based on the absorbance value halfway between positive and negative controls.

[2] = tested on: MDA-MB-231 breast cancer cells; test: MTT cell viability assay, MDA-MB-231; format: cell-based; conditions: MTT; for IC50: Homo sapiens, MDA-MB-231, 72 hours, Inactive = no measurable activity at 20 μM
Description: as §1, with “MDA-MB-231 SUM159, SUM159 gp140ko, MDA-MB-231 breast cancer cells or SUM149 or HCC1937 BRCA mutant breast cancer cells were seeded in 96-well plates at a density of 3,000 cells per well.” left out

[3] = tested on: SUM159 gp130ko breast cancer cells; test: MTT cell viability assay, SUM159 gp130ko; format: cell-based; conditions: SUM159, Table 1 batch studies, 72 hours, read-out: IC50 Values in Breast Cancer Cell Lines, SUM159 gp130ko
Description: as §1, with “MDA-MB-231 SUM159, SUM159 gp140ko, MDA-MB-231 breast cancer cells or SUM149 or HCC1937 BRCA mutant breast cancer cells were seeded in 96-well plates at a density of 3,000 cells per well.” left out

[4] = tested on: MDA-MB-231 Bone Metastatic breast cancer cells; test: MTT cell viability assay, MDA-MB-231 Bone Metastatic; format: cell-based; conditions: Homo sapiens, 72 hours
Description: as §1, with “MDA-MB-231 SUM159, SUM159 gp140ko, MDA-MB-231 breast cancer cells or SUM149 or HCC1937 BRCA mutant breast cancer cells were seeded in 96-well plates at a density of 3,000 cells per well.” left out

induced p-STAT1 = test: Selectivity study, western blot, T47D cells, IFN stimulation; format: cell-based; conditions: T47D breast cancer cells, compound, then cytokine
Description: (§2) Cells were harvested and lysed in cold radioimmunoprecipitation assay (RIPA) lysis buffer containing proteasome inhibitor cocktail and phosphatase inhibitor cocktail. The protein concentrations were determined using the BCA Protein Assay kit. After adding the loading buffer and boiling at 95° C. for 10 minutes, equivalent amounts of proteins were loaded on and separated by SDS-PAGE, and then were transferred to PVDF membranes. Membranes were probed with primary antibodies (1:1000) against gp130 and GAPDH. Membranes were analyzed using Enhanced Chemiluminescence Plus reagents and either scanned with the Storm Scanner (Amersham Pharmacia Biotech, Inc., Piscataway, NJ) or imaged with ChemiDoc MP imaging system (Bio-Rad, Hercules, CA).
(§3) Inhibition of downstream STAT3 phosphorylation was performed. T47D breast cancer cells, which lack endogenous IL-6, were treated with LLM418-MCBu for 2 hours. Then, cytokine was administered for 30 minutes (IL-6, INF, LIF, or OSM). Western blot conducted afterwards to assess dose-dependent inhibition of IL-6 signaling (or lack thereof) (FIG. 5).

IL-6 induced p-STAT3 = test: Selectivity study, western blot, T47D cells, IL-6 stimulation; format: cell-based; conditions: T47D breast cancer cells, compound 2 hours, then cytokine 30 minutes
Description: as §2, §3

LIF induced p-STAT3 = test: Selectivity study, western blot, T47D cells, LIF stimulation; format: cell-based; conditions: T47D breast cancer cells, compound, then cytokine
Description: as §2, §3

pSTAT3 in T47D cell line = test: pSTAT3 inhibition in T47D cell line (FIG. 8); format: cell-based; conditions: compound, then cytokine
Description: (§4) FIG. 8 depicts TNBC, BRCA-mutant, and T47D cells stimulated with LLM418-MCBU, then cytokine.
as §2

[5] = tested on: HCC1937 BRCA-mutant TNBC cells; test: Cell viability, combination with PARP inhibitor talazoparib (FIG. 9); format: cell-based; conditions: LLM418-MCBU in combination with PARP inhibitor talazoparib
Text: FIG. 9 depicts cell viability of HCC1937 BRCA-mutant TNBC cells treated with LLM418-MCBU and PARP inhibitor talazoparib.

[6] = tested on: pSTAT3 in BRCA-mutant cell line; test: pSTAT3 inhibition in BRCA-mutant cell line (FIG. 8); format: cell-based; conditions: compound, then cytokine
Description: as §4, §2

pSTAT3 in TNBC cell line = test: pSTAT3 inhibition in TNBC cell line (FIG. 8); format: cell-based; conditions: compound, then cytokine
Description: as §4, §2

gp130 [7] = molecular target: T1, gp130 (Homo sapiens, UniProt P40189); test: DARTS assay in MDA-MB-231 breast cancer cell lysates; format: binding; conditions: 1:2000 pronase:protein, proteolysis 20 minutes; FIG. 1
T1 construct: endogenous in cells; host or cells: MDA-MB-231 breast cancer cells (RIPA lysate)
T1 sequence (P40189 23-918): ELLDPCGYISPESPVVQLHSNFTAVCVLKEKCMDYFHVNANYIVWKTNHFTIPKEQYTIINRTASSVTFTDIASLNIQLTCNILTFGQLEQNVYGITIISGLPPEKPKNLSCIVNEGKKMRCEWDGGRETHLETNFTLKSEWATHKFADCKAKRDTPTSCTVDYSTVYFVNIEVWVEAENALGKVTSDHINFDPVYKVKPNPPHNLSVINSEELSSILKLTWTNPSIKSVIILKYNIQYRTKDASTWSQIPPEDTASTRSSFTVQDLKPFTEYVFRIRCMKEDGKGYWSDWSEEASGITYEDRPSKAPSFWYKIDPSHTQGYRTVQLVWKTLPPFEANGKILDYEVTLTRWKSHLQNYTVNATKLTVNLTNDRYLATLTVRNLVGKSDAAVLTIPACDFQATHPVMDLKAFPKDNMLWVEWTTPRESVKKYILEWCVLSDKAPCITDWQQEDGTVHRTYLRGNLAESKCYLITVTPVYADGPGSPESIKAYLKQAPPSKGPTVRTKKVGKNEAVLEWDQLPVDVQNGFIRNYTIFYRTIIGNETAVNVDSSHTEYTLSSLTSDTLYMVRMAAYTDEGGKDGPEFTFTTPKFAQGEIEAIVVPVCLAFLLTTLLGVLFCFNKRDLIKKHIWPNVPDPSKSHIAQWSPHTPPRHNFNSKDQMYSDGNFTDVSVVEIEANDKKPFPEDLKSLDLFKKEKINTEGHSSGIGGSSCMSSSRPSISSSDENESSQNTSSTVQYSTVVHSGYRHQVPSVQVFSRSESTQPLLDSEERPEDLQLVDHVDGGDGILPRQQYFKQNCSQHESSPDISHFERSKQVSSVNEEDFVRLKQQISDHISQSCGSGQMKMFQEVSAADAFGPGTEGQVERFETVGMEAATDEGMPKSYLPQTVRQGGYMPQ
Description: as §2
(§5) MDA-MB-231 breast cancer cells or MIAPaCa2 pancreatic cancer cells were lysed in cold radioimmunoprecipitation assay (RIPA) lysis buffer containing proteasome inhibitor cocktail and phosphatase inhibitor cocktail. Then lysates were incubated with escalating concentrations (10-1000 μM) of LS-28-3 or bazedoxifene at room temperature for 1 h. Proteolysis was followed by adding protease pronase solution at a ratio of 1 mg of pronase to 1000 mg (or 2000 mg) of lysate protein for 20 min at room temperature. […] The resulted protein samples were separated by 8% SDS-PAGE gel and analyzed by western blotting. […]

gp130 [8] = molecular target: T1, gp130; test: DARTS assay in MIAPaCa2 pancreatic cancer cell lysates; format: binding; conditions: 1:2000 pronase:protein, proteolysis 20 minutes; FIG. 2
Description: as §2, §5

[9] = SUM159, Table 1 batch studies, read-out: IC50 Values in Breast Cancer Cell Lines, SUM159
[10] = SUM159, Table 3 batch studies (independent from Table 1), read-out: SUM159 IC50
[11] = Table 1 batch studies, read-out: IC50 Values in Breast Cancer Cell Lines, MDA-MB-231
[12] = Table 3 batch studies (independent from Table 1), read-out: MDA-MB-231 IC50
[13] = MDA-MB-231, Table 1 batch studies, read-out: IC50 Values in Breast Cancer Cell Lines, MDA-MB-231 Bone Metastatic
[14] = MDA-MB-231, Table 3 batch studies (independent from Table 1), read-out: MDA-MB-231 Bone Metastatic IC50

Structure (SMILES)	IC50 [1, 9]	IC50 [1, 10]	IC50 [2, 11]	IC50 [2, 12]	IC50 [3]	IC50 [4, 13]	IC50 [4, 14]	Inhibition of IFN-7 induced p-STAT1 (induced p-STAT1)	Inhibition of IL-6 induced p-STAT3 (IL-6 induced p-STAT3)	also measured
O=C(Nc1ccccc1-c1ccn(C2CCC2)n1)c1ccc(OCCN2CCCCC2)cc1 [LLM418-CBU, N-(2-(1-cyclobutyl-1H-pyrazol-3-yl)phenyl)-4-(2-(piperidin-1-yl)ethoxy)benzamide]	5.9 µM	15.1 µM	49.7 µM	30.1 µM	16.1 µM	11.8 µM	21.1 µM	also inhibits IFN-7 induced p-STAT1	inhibits IL-6 induced p-STAT3	Inhibition of LIF induced p-STAT3 (LIF induced p-STAT3): also inhibits
O=C(Nc1ccccc1-c1ccn(CC2CCC2)n1)c1ccc(OCCN2CCCCC2)cc1 [LLM418-MCBu, N-(2-(1-(cyclobutylmethyl)-1H-pyrazol-3-yl)phenyl)-4-(2-(piperidin-1-yl)ethoxy)benzamide]	10.5 µM	10.5 µM	18.5 µM	18.5 µM	13.9 µM	7.3 µM	7.3 µM		inhibited IL-6 selectively in a dose-dependent manner	Inhibition of pSTAT3, T47D cell line (pSTAT3 in T47D cell line): inhibits pSTAT3; CI (synergy in inhibiting cell viability) [5]: < 1.0; Inhibition of pSTAT3, BRCA-mutant cell line [6]: inhibits pSTAT3; Inhibition of IL-6 induced p-STAT3 (IL-6 induced p-STAT3; listed as LLM418-MCBU): selectively inhibits IL-6 induced p-STAT3; Inhibition of pSTAT3, TNBC cell line (pSTAT3 in TNBC cell line): inhibits pSTAT3
CC(C)n1ccc(-c2ccccc2NC(=O)c2ccc(OCCN3CCCCC3)cc2)n1 [LLM418-iPR, N-(2-(1-isopropyl-1H-pyrazol-3-yl)phenyl)-4-(2-(piperidin-1-yl)ethoxy)benzamide]	9.1 µM	9.1 µM	19 µM	19 µM	12.1 µM		29.7 µM	inhibit both IL-6 induced p-STAT3 and IFN-7 induced p-STAT1	inhibit both IL-6 induced p-STAT3 and IFN-7 induced p-STAT1	
CC(C)[C@H]1COC(=O)N1c1ccc(C(=O)Nc2cccc(-c3cc[nH]n3)c2)cc1 [LS-28-3, (S)—N-(3-(1H-pyrazol-3-yl)phenyl)-4-(4-isopropyl-2-oxooxazolidin-3-yl)benzamide]										IC50 Values in Breast Cancer Cell Lines, SUM159 ([1]; Table 1 batch studies): Inactive; SUM159 IC50 ([1]; Table 3 batch studies (independent from Table 1)): Inactive; Percent cells remaining after treatment with 10 μM compound, MDA-MB-231 ([2]; Table 1 batch studies): 88%***; Percent cells remaining after treatment with 10 μM compound, MDA-MB-231 ([2]; Table 3 batch studies): 88%***; Binding to gp130 (protection from pronase proteolysis), MDA-MB-231 lysates (gp130 [7]): showed direct binding to gp130; Binding to gp130 (protection from pronase proteolysis), MIAPaCA2 lysates (gp130 [8]): showed direct binding to gp130
